# Test results published in ChEMBL document CHEMBL1201862, “PubChem BioAssay data set” (2004).
#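 Compound exposure: 48 hours, 5 concentrations, 96-well plates. Abbreviation: GI50, concentration required for 50% inhibition of growth.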 The source made the active and inactive calls. No stated cut-off is given here; in the data, active = GI50 up to about 1.1 µM and inactive = higher.
# Tests used:
# Assay in all cases: growth of human tumour cells (NCI), 48 h
# LOX IMVI = test system: LOX IMVI
# MCF7 = test system: MCF7
# OVCAR-3 = test system: OVCAR-3
# NCI-H522 = test system: NCI-H522
# RPMI-8226 = test system: RPMI-8226
# SF-268 = test system: SF-268
# MDA-MB-435 = test system: MDA-MB-435
# CAKI-1 = test system: CAKI-1
# COLO 205 = test system: COLO 205
# HOP-62 = test system: HOP-62
# A549 = test system: A549
# MOLT-4 = test system: MOLT-4
# KM12 = test system: KM12
# SR = test system: SR
# SW-620 = test system: SW-620
# OVCAR-5 = test system: OVCAR-5
# NCI/ADR-RES = test system: NCI/ADR-RES
# SK-MEL-2 = test system: SK-MEL-2
# HCT-116 = test system: HCT-116
# UACC-257 = test system: UACC-257
SMILES,GI50 (LOX IMVI),GI50 (MCF7),GI50 (OVCAR-3),GI50 (NCI-H522),GI50 (RPMI-8226),GI50 (SF-268),GI50 (MDA-MB-435),GI50 (CAKI-1),GI50 (COLO 205),GI50 (HOP-62),GI50 (A549),GI50 (MOLT-4),GI50 (KM12),GI50 (SR),GI50 (SW-620),GI50 (OVCAR-5),GI50 (NCI/ADR-RES),GI50 (SK-MEL-2),GI50 (HCT-116),GI50 (UACC-257)
Oc1ccccc1CNCc1nc2ccccc2[nH]1,57 µM (inactive),> 100 µM (inactive),33.7 µM (inactive),> 100 µM (inactive),17.7 µM (inactive),> 100 µM (inactive),> 100 µM (inactive),69.3 µM (inactive),29.7 µM (inactive),69 µM (inactive),> 100 µM (inactive),65.5 µM (inactive),89.5 µM (inactive),50 µM (inactive),55.3 µM (inactive),> 100 µM (inactive),15.9 µM (inactive),> 100 µM (inactive),37 µM (inactive),> 100 µM (inactive)
NC(=S)NN=C1Cc2ccccc2C1,> 100 µM (inactive),> 100 µM (inactive),> 100 µM (inactive),> 100 µM (inactive),> 100 µM (inactive),> 100 µM (inactive),> 100 µM (inactive),> 100 µM (inactive),> 100 µM (inactive),> 100 µM (inactive),> 100 µM (inactive),> 100 µM (inactive),> 100 µM (inactive),> 100 µM (inactive),> 100 µM (inactive),> 100 µM (inactive),> 100 µM (inactive),> 100 µM (inactive),> 100 µM (inactive),> 100 µM (inactive)
CCOC(=O)/C(=C\NCc1ccc2c(c1)OCO2)c1nc2ccccc2[nH]1,42.2 µM (inactive),59.8 µM (inactive),43 µM (inactive),28.2 µM (inactive),25.5 µM (inactive),61.4 µM (inactive),48.6 µM (inactive),> 100 µM (inactive),32.7 µM (inactive),71.3 µM (inactive),35.4 µM (inactive),30.5 µM (inactive),42.7 µM (inactive),48.1 µM (inactive),98.2 µM (inactive),94.8 µM (inactive),60.3 µM (inactive),48.4 µM (inactive),39.8 µM (inactive),64.6 µM (inactive)
CC1(C)C2CCC(=O)C1C(OCc1ccccc1)C2 (centres undefined),> 100 µM (inactive),> 100 µM (inactive),> 100 µM (inactive),> 100 µM (inactive),> 100 µM (inactive),> 100 µM (inactive),> 100 µM (inactive),24.1 µM (inactive),> 100 µM (inactive),> 100 µM (inactive),21.9 µM (inactive),> 100 µM (inactive),> 100 µM (inactive),29.8 µM (inactive),> 100 µM (inactive),> 100 µM (inactive),> 100 µM (inactive),> 100 µM (inactive),> 100 µM (inactive),85.7 µM (inactive)
Cc1oc2c(c1C(=O)c1ccccc1)C(=O)c1ccccc1C2=O,2.22 µM (inactive),4.07 µM (inactive),2.26 µM (inactive),2.3 µM (inactive),2.85 µM (inactive),10.8 µM (inactive),1.58 µM (inactive),4.23 µM (inactive),13.9 µM (inactive),14.2 µM (inactive),14.7 µM (inactive),2.47 µM (inactive),6.55 µM (inactive),3.24 µM (inactive),1.92 µM (inactive),15.2 µM (inactive),3.52 µM (inactive),3.26 µM (inactive),3.3 µM (inactive),3.61 µM (inactive)
O=C1c2scc(-c3ccc(F)cc3)c2-n2cccc21,24.6 µM (inactive),21.2 µM (inactive),54.1 µM (inactive),17.3 µM (inactive),24.5 µM (inactive),36.4 µM (inactive),11.1 µM (inactive),10.3 µM (inactive),44.9 µM (inactive),15.6 µM (inactive),56.5 µM (inactive),27.9 µM (inactive),43 µM (inactive),11 µM (inactive),27.4 µM (inactive),> 100 µM (inactive),33 µM (inactive),35.2 µM (inactive),18.2 µM (inactive),71 µM (inactive)
O=C1NC(N2CCCC(CO)C2)=N/C1=C\c1ccccc1 (centres undefined),> 100 µM (inactive),> 100 µM (inactive),> 100 µM (inactive),> 100 µM (inactive),> 100 µM (inactive),> 100 µM (inactive),> 100 µM (inactive),> 100 µM (inactive),> 100 µM (inactive),> 100 µM (inactive),> 100 µM (inactive),> 100 µM (inactive),> 100 µM (inactive),> 100 µM (inactive),> 100 µM (inactive),> 100 µM (inactive),> 100 µM (inactive),> 100 µM (inactive),> 100 µM (inactive),> 100 µM (inactive)
Cc1cccc2c(N)c3cccc(C(=O)NCC[N+](C)(C)Cc4ccc([N+](=O)[O-])s4)c3nc12,3.84 µM (inactive),2.23 µM (inactive),9.04 µM (inactive),5.28 µM (inactive),2.62 µM (inactive),4.78 µM (inactive),21.9 µM (inactive),2.37 µM (inactive),4.9 µM (inactive),4.21 µM (inactive),0.404 µM (active),0.472 µM (active),9.06 µM (inactive),1.19 µM (inactive),5.4 µM (inactive),11.9 µM (inactive),43.8 µM (inactive),41 µM (inactive),3.83 µM (inactive),23.7 µM (inactive)
COc1ccc(/C=N/n2c(Cc3ccccc3)n[nH]c2=O)c(OC)c1,27.5 µM (inactive),> 100 µM (inactive),> 63.5 µM (inactive),> 52 µM (inactive),> 100 µM (inactive),15.5 µM (inactive),> 100 µM (inactive),> 51.4 µM (inactive),> 31.6 µM (inactive),20.9 µM (inactive),> 39.5 µM (inactive),> 100 µM (inactive),> 100 µM (inactive),> 100 µM (inactive),> 85.9 µM (inactive),49.1 µM (inactive),21.5 µM (inactive),> 59.8 µM (inactive),26.2 µM (inactive),> 100 µM (inactive)
COC1OC(=O)C(OC)C(OC)C1OC (centres undefined),> 100 µM (inactive),> 100 µM (inactive),> 100 µM (inactive),> 100 µM (inactive),> 100 µM (inactive),> 100 µM (inactive),> 100 µM (inactive),> 100 µM (inactive),> 100 µM (inactive),> 100 µM (inactive),> 100 µM (inactive),> 100 µM (inactive),> 100 µM (inactive),> 100 µM (inactive),> 100 µM (inactive),> 100 µM (inactive),> 100 µM (inactive),> 100 µM (inactive),> 100 µM (inactive),> 100 µM (inactive)
CC(C)(C)OC(=O)NCCCCC1NC(=O)[C@@H]2Cc3c([nH]c4ccccc34)C(c3ccccc3)N2C1=O (some centres undefined),19.9 µM (inactive),35.2 µM (inactive),19 µM (inactive),23 µM (inactive),27.7 µM (inactive),14 µM (inactive),34.2 µM (inactive),50.5 µM (inactive),21.1 µM (inactive),30.3 µM (inactive),38.4 µM (inactive),15.6 µM (inactive),18.9 µM (inactive),13.6 µM (inactive),54 µM (inactive),53.8 µM (inactive),35.1 µM (inactive),24.7 µM (inactive),29.7 µM (inactive),35.6 µM (inactive)
O=Cc1ccc(-c2cc(C=O)c(-c3cccs3)[nH]2)s1,25.3 µM (inactive),19.4 µM (inactive),18.5 µM (inactive),10.3 µM (inactive),53.2 µM (inactive),> 75 µM (inactive),25.6 µM (inactive),9.4 µM (inactive),25.1 µM (inactive),21.3 µM (inactive),24.8 µM (inactive),20.2 µM (inactive),25.8 µM (inactive),4.05 µM (inactive),> 75 µM (inactive),> 75 µM (inactive),26.7 µM (inactive),46.2 µM (inactive),22.8 µM (inactive),48 µM (inactive)
Oc1ccc(-c2nc(-c3cccnc3)c(-c3ccc(Cl)cc3)[nH]2)cc1O,9.82 µM (inactive),11.5 µM (inactive),3.43 µM (inactive),1.13 µM (inactive),> 100 µM (inactive),11.5 µM (inactive),13.8 µM (inactive),15.1 µM (inactive),13.9 µM (inactive),12.4 µM (inactive),20.1 µM (inactive),3.78 µM (inactive),8.97 µM (inactive),> 100 µM (inactive),12.4 µM (inactive),18.7 µM (inactive),14.1 µM (inactive),17.8 µM (inactive),11.7 µM (inactive),15.1 µM (inactive)
O=C(O)Cc1ccc(Oc2nc3ccccc3nc2C(=O)O)cc1,> 100 µM (inactive),> 100 µM (inactive),> 100 µM (inactive),> 100 µM (inactive),> 100 µM (inactive),> 100 µM (inactive),12.8 µM (inactive),96.8 µM (inactive),> 100 µM (inactive),> 100 µM (inactive),> 100 µM (inactive),–,> 100 µM (inactive),0.0187 µM (active),> 100 µM (inactive),> 100 µM (inactive),> 100 µM (inactive),> 100 µM (inactive),> 100 µM (inactive),> 100 µM (inactive)
